According to patent publication US20100317607A1, “USE OF COMPOUNDS FOR PREPARING ANTI-TUBERCULOSIS AGENTS” (INFECTIOUS DISEASE RESEARCH INSTITUTE, priority 2007, published 2010):
Values after ≈ are worked out from the molar mass of the structure shown. Where a name gives a salt, the structure may show the parent alone.

system: H37Rv strain of M. tuberculosis; assay: Alamar Blue Susceptibility Test (MABA); type: cell-based; details: H37Rv strain of M. tuberculosis; Alamar Blue

Row | SMILES | MABA (TB growth inhibition, colourimetric assay)
1 | Nc1nc(N)c2ccccc2n1 [Comparative compound 2, Quinazoline-2,4-diamine, reference compound] | −

same assay, conditions: Mycobacterium tuberculosis; H37Rv strain of M. tuberculosis; Alamar Blue; read-out: MABA (TB growth inhibition, colourimetric assay)

Row | SMILES | MIC
2 | O=C(C1CC1)N1CCN(c2nc(NCc3ccc(F)cc3)c3ccccc3n2)CC1 [Compound 202, Cyclopropyl(4-(4-(4-fluorobenzylamino)quinazolin-2-yl)piperazin-1-yl)methanone hydrochloride] | 50 to 128 µM
3 | CS(=O)(=O)c1ccc(CNc2nc(N3CCCCC3)nc3ccccc23)cc1 [Compound 94, N-(4-(Methylsulfonyl)benzyl)-2-(piperidin-1-yl)quinazolin-4-amine] | 10 to 50 µM (≈ 3.97 to 19.8 µg/mL)
4 | Cc1ccc(C(C)(C)Nc2nc(N3CCCCC3)nc3ccccc23)cc1 [Compound 102, 2-(Piperidin-1-yl)-N-(2-p-tolylpropan-2-yl)quinazolin-4-amine] | 10 to 50 µM (≈ 3.61 to 18 µg/mL)
5 | FC1(F)CCN(c2nc(NCc3ccc(OC(F)(F)F)cc3)c3ccccc3n2)CC1 [Compound 163, 2-(4,4-Difluoropiperidin-1-yl)-N-(4-(trifluoromethoxy)benzyl)quinazolin-4-amine] | 10 to 50 µM (≈ 4.38 to 21.9 µg/mL)
6 | CC(C)(Cc1ccc(F)cc1)Nc1nc(N2CCCCC2)nc2ccccc12 [Compound 108, N-(1-(4-Fluorophenyl)-2-methylpropan-2-yl)-2-(piperidin-1-yl)quinazolin-4-amine] | 10 to 50 µM (≈ 3.78 to 18.9 µg/mL)
7 | Fc1ccc(CNc2nc(N3CCCCC3)c3ccccc3n2)cc1 [Compound 111, N-(4-Fluorobenzyl)-4-(piperidin-1-yl)quinazolin-2-amine hydrochloride] | 10 to 50 µM
8 | Fc1ccc(CNc2nc(N3CCC(F)(F)CC3)nc3ccccc23)cc1 [Compound 137, 2-(4,4-Difluoropiperidin-1-yl)-N-(4-fluorobenzyl)quinazolin-4-amine] | 10 to 50 µM (≈ 3.72 to 18.6 µg/mL)
9 | c1ccc2c(NCc3ccoc3)nc(N3CCCCC3)nc2c1 [Compound 190, N-(Furan-3-ylmethyl)-2-(piperidin-1-yl)quinazolin-4-amine] | 10 to 50 µM (≈ 3.08 to 15.4 µg/mL)
10 | O=C(C1CCCCC1)N1CCN(c2nc(NCc3ccc(F)cc3)c3ccccc3n2)CC1 [Compound 203, Cyclohexyl(4-(4-(4-fluorobenzylamino)quinazolin-2-yl)piperazin-1-yl)methanone] | 10 to 50 µM (≈ 4.48 to 22.4 µg/mL)
11 | Fc1ccc(CNc2nc(N3CCC(F)(F)CC3)c3ccccc3n2)c(F)c1 [Compound 148, N-(2,4-Difluorobenzyl)-4-(4,4-difluoropiperidin-1-yl)quinazolin-2-amine] | 10 to 50 µM (≈ 3.9 to 19.5 µg/mL)
12 | FC(F)(F)Oc1ccc(CNc2nc(N3CCCCC3)nc3ccccc23)cc1 [Compound 162, 2-(Piperidin-1-yl)-N-(4-(trifluoromethoxy)benzyl)quinazolin-4-amine] | < 10 µM
13 | c1csc(CNc2nc(N3CCCC3)nc3ccccc23)c1 [Compound 187, 2-(Pyrrolidin-1-yl)-N-(thiophen-2-ylmethyl)quinazolin-4-amine] | 10 to 50 µM (≈ 3.1 to 15.5 µg/mL)
14 | COc1cc2nc(N3CCCCC3)nc(NCc3ccc(F)cc3)c2cc1OC [Compound 150, N-(4-Fluorobenzyl)-6,7-dimethoxy-2-(piperidin-1-yl)quinazolin-4-amine hydrochloride] | 10 to 50 µM
15 | Fc1ccc(CNc2nc(N3CCCCC3)nc3ncccc23)cc1 [Compound 174, N-(4-Fluorobenzyl)-2-(piperidin-1-yl)pyrido[2,3-d]pyrimidin-4-amine] | 10 to 50 µM (≈ 3.37 to 16.9 µg/mL)
16 | c1ccc(CNc2nc(N3CCCCC3)nc3ccccc23)nc1 [Compound 46, 2-(Piperidin-1-yl)-N-(pyridin-2-ylmethyl)quinazolin-4-amine] | 50 to 128 µM (≈ 16 to 40.9 µg/mL)
17 | c1ccc(Nc2nc(N3CCCCC3)nc3ccccc23)cc1 [Compound 72, N-Phenyl-2-(piperidin-1-yl)quinazolin-4-amine hydrochloride] | 50 to 128 µM
18 | OC[C@H](Nc1nc(N2CCCCC2)nc2ccccc12)c1ccccc1 [Compound 145, (R)-2-Phenyl-2-(2-(piperidin-1-yl)quinazolin-4-ylamino)ethanol hydrochloride] | 50 to 128 µM
19 | Fc1ccc(CNc2nc(N3CCCC3)nc3ncccc23)cc1 [Compound 173, N-(4-Fluorobenzyl)-2-(pyrrolidin-1-yl)pyrido[2,3-d]pyrimidin-4-amine] | 10 to 50 µM (≈ 3.23 to 16.2 µg/mL)
20 | Clc1ccc2nc(N3CCCCC3)nc(NCc3ccccc3)c2c1 [Compound 71, N-Benzyl-6-chloro-2-(piperidin-1-yl)quinazolin-4-amine] | 10 to 50 µM (≈ 3.53 to 17.6 µg/mL)
21 | CCOC(=O)CN1CCN(c2nc(NCc3ccccc3)c3ccccc3n2)CC1 [Compound 27, Ethyl 2-(4-(4-(benzylamino)quinazolin-2-yl)piperazin-1-yl)acetate] | 50 to 128 µM (≈ 20.3 to 51.9 µg/mL)
22 | FC(F)(F)c1ccc(CNc2nc(N3CCOCC3)nc3ccccc23)cc1 [Compound 77, 2-Morpholino-N-(4-(trifluoromethyl)benzyl)quinazolin-4-amine] | 10 to 50 µM (≈ 3.88 to 19.4 µg/mL)
23 | O=C(c1ccccc1)N1CCN(c2nc(NCc3ccccc3)c3ccccc3n2)CC1 [Compound 58, 1-(4-(4-(Benzylamino)quinazolin-2-yl)piperazin-1-yl)(phenyl)methanone] | 10 to 50 µM (≈ 4.24 to 21.2 µg/mL)
24 | c1ccc2c(c1)CCN(c1nc(N3CCCC3)nc3ccccc13)C2 [Compound 186, 4-(3,4-Dihydroisoquinolin-2(1H)-yl)-2-(pyrrolidin-1-yl)quinazoline] | 10 to 50 µM (≈ 3.3 to 16.5 µg/mL)
25 | c1ccc(CNc2nc(Nc3ccccc3)nc3ccccc23)cc1 [Compound 23, N^4-Benzyl-N^2-phenylquinazoline-2,4-diamine] | 10 to 50 µM (≈ 3.26 to 16.3 µg/mL)

Row | SMILES | MIC
26 | Clc1ccc(N2CCN(c3nc(N4CCCCC4)nc4ccccc34)CC2)cc1 [Compound 89, 4-(4-(4-Chlorophenyl)piperazin-1-yl)-2-(piperidin-1-yl)quinazoline] | 10 to 50 µM (≈ 4.08 to 20.4 µg/mL)
27 | Fc1ccc(Nc2nc(N3CCCC3)nc3nccnc23)cc1 [Compound 185, N-(4-Fluorophenyl)-2-(pyrrolidin-1-yl)pteridin-4-amine] | 50 to 128 µM (≈ 15.5 to 39.7 µg/mL)
28 | Fc1ccc(CNc2nc(NCc3ccccc3)c3ccccc3n2)cc1 [Compound 126, N^4-Benzyl-N^2-(4-fluorobenzyl)quinazoline-2,4-diamine hydrochloride] | 10 to 50 µM
29 | Clc1cccc2nc(N3CCCCC3)nc(NCc3ccccc3)c12 [Compound 107, N-Benzyl-5-chloro-2-(piperidin-1-yl)quinazolin-4-amine] | 10 to 50 µM (≈ 3.53 to 17.6 µg/mL)
30 | CCN(CC)c1nc(NCc2ccccc2)c2ccccc2n1 [Compound 25, N^4-Benzyl-N^2,N^2-diethylquinazoline-2,4-diamine] | 10 to 50 µM (≈ 3.06 to 15.3 µg/mL)
31 | c1cncc(CNc2nc(N3CCCCC3)nc3ccccc23)c1 [Compound 47, 2-(Piperidin-1-yl)-N-(pyridin-3-ylmethyl)quinazolin-4-amine] | 50 to 128 µM (≈ 16 to 40.9 µg/mL)
32 | COc1cccc(CNc2nc(N3CCCCC3)nc3ccccc23)c1 [Compound 82, N-(3-Methoxybenzyl)-2-(piperidin-1-yl)quinazolin-4-amine hydrochloride] | 10 to 50 µM
33 | COc1cc2c(cc1OC)CN(c1nc(N3CCCCC3)nc3ccccc13)CC2 [Compound 192, 4-(6,7-Dimethoxy-3,4-dihydroisoquinolin-2(1H)-yl)-2-(piperidin-1-yl)quinazoline] | 10 to 50 µM (≈ 4.05 to 20.2 µg/mL)
34 | CCC(CC)(Nc1nc(N2CCCCC2)nc2ccccc12)c1ccccc1 [Compound 138, N-(3-Phenylpentan-3-yl)-2-(piperidin-1-yl)quinazolin-4-amine] | < 10 µM
35 | COc1ccc([C@@H](C)Nc2nc(N3CCCCC3)nc3ccccc23)cc1 [Compound 97, (R)—N-(1-(4-Methoxyphenyl)ethyl)-2-(piperidin-1-yl)quinazolin-4-amine] | 10 to 50 µM (≈ 3.62 to 18.1 µg/mL)
36 | Fc1ccc(CNc2nc(Nc3ccc(F)cc3)nc3ccccc23)cc1 [Compound 118, N^4-(4-Fluorobenzyl)-N^2-(4-fluorophenyl)quinazoline-2,4-diamine hydrochloride] | 10 to 50 µM
37 | Cc1ccc(CCNc2nc(N3CCCCC3)nc3ccccc23)cc1 [Compound 87, N-(4-Methylphenethyl)-2-(piperidin-1-yl)quinazolin-4-amine hydrochloride] | 10 to 50 µM
38 | O=C(Nc1nc(NCc2ccccc2)c2ccccc2n1)c1ccccc1 [Compound 73, N-(4-(Benzylamino)quinazolin-2-yl)benzamide] | 50 to 128 µM (≈ 17.7 to 45.4 µg/mL)
39 | Fc1ccc(CNc2nc(NCc3ccc(F)cc3)c3ccccc3n2)cc1 [Compound 119, N^2,N^4-bis(4-Fluorobenzyl)quinazoline-2,4-diamine hydrochloride] | 10 to 50 µM
40 | Fc1ccc(CNc2nc(NCCN3CCCCC3)nc3ccccc23)cc1 [Compound 209, N^4-(4-Fluorobenzyl)-N^2-(2-(piperidin-1-yl)ethyl)quinazoline-2,4-diamine hydrochloride] | 50 to 128 µM
41 | CC(C)(Nc1nc(N2CCCC2)nc2ccccc12)c1ccc(F)cc1 [Compound 121, N-(2-(4-Fluorophenyl)propan-2-yl)-2-(pyrrolidin-1-yl)quinazolin-4-amine] | 10 to 50 µM (≈ 3.5 to 17.5 µg/mL)
42 | c1ccc(C2(Nc3nc(N4CCCC4)nc4ccccc34)CC2)cc1 [Compound 123, N-(1-Phenylcyclopropyl)-2-(pyrrolidin-1-yl)quinazolin-4-amine] | 10 to 50 µM (≈ 3.3 to 16.5 µg/mL)
43 | Cc1ccc(CNc2nc(NCc3ccc(F)cc3)c3ccccc3n2)o1 [Compound 170, N^4-(4-Fluorobenzyl)-N^2-((5-methylfuran-2-yl)methyl)quinazoline-2,4-diamine] | 10 to 50 µM (≈ 3.62 to 18.1 µg/mL)
44 | Fc1ccc(CNc2nc(NC3(c4ccc(F)cc4)CC3)c3ccccc3n2)cc1 [Compound 154, N^2-(4-Fluorobenzyl)-N^4-(1-(4-fluorophenyl)cyclopropyl)quinazoline-2,4-diamine] | < 10 µM
45 | Clc1ccc(CNc2nc(N3CCCCC3)nc3ccccc23)s1 [Compound 189, N-((5-Chlorothiophen-2-yl)methyl)-2-(piperidin-1-yl)quinazolin-4-amine] | < 10 µM
46 | COC[C@H](Cc1ccccc1)Nc1nc(N2CCCCC2)nc2ccccc12 [Compound 144, (S)—N-(1-Methoxy-3-phenylpropan-2-yl)-2-(piperidin-1-yl)quinazolin-4-amine] | 10 to 50 µM (≈ 3.77 to 18.8 µg/mL)
47 | Fc1ccc(CNc2nc(N3Cc4ccccc4C3)nc3ccccc23)cc1 [Compound 179, N-(4-Fluorobenzyl)-2-(isoindolin-2-yl)quinazolin-4-amine hydrochloride] | < 10 µM
48 | COC[C@@H]1CCCN1c1nc(NCc2ccc(F)cc2)c2ccccc2n1 [Compound 199, (S)—N-(4-Fluorobenzyl)-2-(2-(methoxymethyl)pyrrolidin-1-yl)quinazolin-4-amine] | 10 to 50 µM (≈ 3.66 to 18.3 µg/mL)
